In patent publication EP0908457B1, “3-(1,2-benzisothiazol- and isoxazol-5-Y1)-2,4(1H,3H)-pyrimidinedione or thione and 3-(1,2-benzisothiazol- and isoxazol-5-y1)-4(3H)-pyrimidinone or thione herbicidal agents” (BASF AKTIENGESELLSCHAFT, priority 1997, dated 1999):

Assays:
Type in all cases: in vivo
[1] = tested on: Echinochloa oryzoides (Ard.) Fritsch.; assay: Preemergence weed control under flooded paddy conditions, ECHORC (Watergrass (Calif.)); details: flooded paddy; for herbicidal effect rating, ECHORC: preemergence, rated three to four weeks after treatment; for ECHORC: preemergence weeds, herbicidal effect rating 0-9, three to four weeks after treatment; on herbicidal effect rating, ECHORC: meaning of each grade not given here
[2] = tested on: Cyperus serotinus, Rottb.; assay: Preemergence weed control under flooded paddy conditions, CYPSE (Flatsedge); details: for herbicidal effect rating, CYPSE: preemergence, rated three to four weeks after treatment; for CYPSE: preemergence weeds, herbicidal effect rating 0-9, three to four weeks after treatment; on herbicidal effect rating, CYPSE: meaning of each grade not given here
[3] = tested on: Monochoria vaginalis, Presl.; assay: Preemergence weed control under flooded paddy conditions, MOOVA (Monochoria); details: flooded paddy; for herbicidal effect rating, MOOVA: preemergence, rated three to four weeks after treatment; for MOOVA: preemergence weeds, herbicidal effect rating 0-9, three to four weeks after treatment; on herbicidal effect rating, MOOVA: meaning of each grade not given here
Cyperus iria = assay: Preemergence weed control under flooded paddy conditions, CYPIR (Rice Flatsedge); details: flooded paddy; for herbicidal effect rating, CYPIR: preemergence, rated three to four weeks after treatment; for CYPIR: preemergence weeds, herbicidal effect rating 0-9, three to four weeks after treatment; on herbicidal effect rating, CYPIR: meaning of each grade not given here
Sagittaria pygmaea, L. = assay: Preemergence weed control under flooded paddy conditions, SAGPY (Arrowhead (Pygmaea)); details: flooded paddy; for herbicidal effect rating, SAGPY: preemergence, rated three to four weeks after treatment; for SAGPY: preemergence weeds, herbicidal effect rating 0-9, three to four weeks after treatment; on herbicidal effect rating, SAGPY: meaning of each grade not given here

| Compound | herbicidal effect rating, ECHORC ([1]; Rate 0.0320 kg/ha) | herbicidal effect rating, ECHORC ([1]; Rate 0.0620 kg/ha) | herbicidal effect rating, ECHORC ([1]; Rate 0.1250 kg/ha) | herbicidal effect rating, ECHORC ([1]; Rate 0.2500 kg/ha) | herbicidal effect rating, CYPSE ([2]; Rate 0.0620 kg/ha) | herbicidal effect rating, CYPSE ([2]; Rate 0.1250 kg/ha) | herbicidal effect rating, CYPSE ([2]; Rate 0.2500 kg/ha) | herbicidal effect rating, MOOVA ([3]; Rate 0.0320 kg/ha) | herbicidal effect rating, MOOVA ([3]; Rate 0.0620 kg/ha) | herbicidal effect rating, MOOVA ([3]; Rate 0.1250 kg/ha) | herbicidal effect rating, MOOVA ([3]; Rate 0.2500 kg/ha) | herbicidal effect rating, CYPIR (Cyperus iria; Rate 0.0320 kg/ha) | herbicidal effect rating, CYPIR (Cyperus iria; Rate 0.0620 kg/ha) | herbicidal effect rating, CYPIR (Cyperus iria; Rate 0.1250 kg/ha) | herbicidal effect rating, CYPIR (Cyperus iria; Rate 0.2500 kg/ha) | herbicidal effect rating, SAGPY (Sagittaria pygmaea, L.; Rate 0.0320 kg/ha) | herbicidal effect rating, SAGPY (Sagittaria pygmaea, L.; Rate 0.0620 kg/ha) | herbicidal effect rating, SAGPY (Sagittaria pygmaea, L.; Rate 0.1250 kg/ha) | herbicidal effect rating, SAGPY (Sagittaria pygmaea, L.; Rate 0.2500 kg/ha) | other results |
| --- | --- | --- | --- | --- | --- | --- | --- | --- | --- | --- | --- | --- | --- | --- | --- | --- | --- | --- | --- | --- |
| C=CCC(c1nsc2ccc(-n3c(=O)cc(C(F)(F)F)n(C)c3=O)cc12)S(C)(=O)=O (centres unmarked) [Example 602, 2,4(1H,3H)-Pyrimidinedione, 1-methyl-3-{3-[1-(methylsulfonyl)-3-butenyl]-1,2-benzisothiazol-5-yl}-6-(trifluoromethyl)-] | 0.0 | 5.0 | 9.0 | 9.0 | 0.0 | 7.0 | 9.0 | 7.0 | 7.0 | 8.0 | 9.0 | 3.0 | 3.0 | 5.0 | 5.0 | 0.0 | 0.0 | 0.0 | 3.0 | – |
| CONC(=O)c1nsc2ccc(-n3c(=O)cc(C(F)(F)F)n(C)c3=O)cc12 [Example 403, 1,2-Benzisothiazole-3-carboxamide, 5-[3,6-dihydro-3-methyl-2,6-dioxo-4-(trifluoromethyl)-1(2H)-pyrimidinyl]-N-methoxy-] | – | – | – | 4.0 | – | – | 4.0 | – | – | – | 9.0 | – | – | – | 9.0 | – | – | – | 9.0 | ECHORC ([1]; 0.0320 kg/ha): 0.0; ECHORC ([1]; 0.0620 kg/ha): 2.0; ECHORC ([1]; 0.1250 kg/ha): 4.0; CYPSE ([2]; 0.0320 kg/ha): 0.0; CYPSE ([2]; 0.0620 kg/ha): 0.0; CYPSE ([2]; 0.1250 kg/ha): 2.0; MOOVA ([3]; 0.0320 kg/ha): 7.0; MOOVA ([3]; 0.0620 kg/ha): 6.0; MOOVA ([3]; 0.1250 kg/ha): 9.0; CYPIR (Cyperus iria; 0.0320 kg/ha): 5.0; CYPIR (Cyperus iria; 0.0620 kg/ha): 6.0; CYPIR (Cyperus iria; 0.1250 kg/ha): 7.0; SAGPY (Sagittaria pygmaea, L.; 0.0320 kg/ha): 3.0; SAGPY (Sagittaria pygmaea, L.; 0.0620 kg/ha): 9.0; SAGPY (Sagittaria pygmaea, L.; 0.1250 kg/ha): 9.0 |
| Cn1c(C(F)(F)F)cc(=O)n(-c2ccc3snc(C(=O)NOCc4ccccc4)c3c2)c1=O [Example 400, 1,2-Benzisothiazole-3-carboxamide, N-(benzyloxy)-5-[3,6-dihydro-3-methyl-2,6-dioxo-4-(trifluoromethyl)-1(2H)-pyrimidinyl]-] | 0.0 | 0.0 | 0.0 | 0.0 | 0.0 | 0.0 | 0.0 | 6.0 | 7.0 | 7.0 | 9.0 | 3.0 | 3.0 | 9.0 | 9.0 | 0.0 | 0.0 | 0.0 | 0.0 | herbicidal effect rating, CYPSE ([2]; Rate 0.0320 kg/ha): 0.0 |
